According to article PMC8765293, “Inhibitor-Resistant Mutants Give Important Insights into Candida albicans ABC Transporter Cdr1 Substrate Specificity and Help Elucidate Efflux Pump Inhibition” (Antimicrobial Agents and Chemotherapy, 2022):
Values after ≈ are worked out from the molar mass of the structure shown. Read-outs that look alike come from different tables or passages of the source.

How the values were obtained:
[1] = tested on: AD/pABC3 (empty vector control, sensitive strain); assay: microbe, parasite or virus in culture; conditions: Saccharomyces cerevisiae
[2] = tested on: AD/CDR1 (AD1-8u- overexpressing wt Cdr1); assay: MIC, modified CLSI M27-A3 broth microdilution; conditions: Saccharomyces cerevisiae, read-out: MIC (drug susceptibility)
AD/CDR1-G521R = assay: MIC, modified CLSI M27-A3 broth microdilution; conditions: for Fold-reduced resistance level (MIC) relative to AD/CDR1: G521R, 1 = no change; for MIC: Saccharomyces cerevisiae, read-out: MIC (drug susceptibility)
AD/CDR1-M639I = assay: MIC, modified CLSI M27-A3 broth microdilution; conditions: for Fold-reduced resistance level (MIC) relative to AD/CDR1: M639I, 1 = no change; for MIC: Saccharomyces cerevisiae, read-out: MIC (drug susceptibility)
AD/CDR1-A713P = assay: MIC, modified CLSI M27-A3 broth microdilution; conditions: for Fold-reduced resistance level (MIC) relative to AD/CDR1: A713P, 1 = no change; for MIC: Saccharomyces cerevisiae, read-out: MIC (drug susceptibility)
AD/CDR1-T1355N = assay: MIC, modified CLSI M27-A3 broth microdilution; conditions: for MIC: Saccharomyces cerevisiae, read-out: MIC (drug susceptibility); for Fold-reduced resistance level (MIC) relative to AD/CDR1: T1355N, 1 = no change
wt Cdr1 ATPase activity = wt Cdr1 ATPase activity (Candida albicans, UniProt Q5ANA3); assay: biochemical; conditions: for IC50 / Ki: CDR1 (wt); for Ki: Dixon plot, read-out: Ki (Cdr1 ATPase activity); for Vmax of ATPase activity in the presence of inhibitor: CDR1; for type of inhibition of ATPase activity (Lineweaver-Burk): wt Cdr1
[3] = read-out: MIC (drug susceptibility), strain AD/pABC3
[4] = read-out: MIC (drug susceptibility)
[5] = > = only partial inhibition, none = no reduction at highest concentration, read-out: Estimated IC50 for substrate inhibition of the ATPase activity

Chain of wt Cdr1 ATPase activity (Q5ANA3 whole entry): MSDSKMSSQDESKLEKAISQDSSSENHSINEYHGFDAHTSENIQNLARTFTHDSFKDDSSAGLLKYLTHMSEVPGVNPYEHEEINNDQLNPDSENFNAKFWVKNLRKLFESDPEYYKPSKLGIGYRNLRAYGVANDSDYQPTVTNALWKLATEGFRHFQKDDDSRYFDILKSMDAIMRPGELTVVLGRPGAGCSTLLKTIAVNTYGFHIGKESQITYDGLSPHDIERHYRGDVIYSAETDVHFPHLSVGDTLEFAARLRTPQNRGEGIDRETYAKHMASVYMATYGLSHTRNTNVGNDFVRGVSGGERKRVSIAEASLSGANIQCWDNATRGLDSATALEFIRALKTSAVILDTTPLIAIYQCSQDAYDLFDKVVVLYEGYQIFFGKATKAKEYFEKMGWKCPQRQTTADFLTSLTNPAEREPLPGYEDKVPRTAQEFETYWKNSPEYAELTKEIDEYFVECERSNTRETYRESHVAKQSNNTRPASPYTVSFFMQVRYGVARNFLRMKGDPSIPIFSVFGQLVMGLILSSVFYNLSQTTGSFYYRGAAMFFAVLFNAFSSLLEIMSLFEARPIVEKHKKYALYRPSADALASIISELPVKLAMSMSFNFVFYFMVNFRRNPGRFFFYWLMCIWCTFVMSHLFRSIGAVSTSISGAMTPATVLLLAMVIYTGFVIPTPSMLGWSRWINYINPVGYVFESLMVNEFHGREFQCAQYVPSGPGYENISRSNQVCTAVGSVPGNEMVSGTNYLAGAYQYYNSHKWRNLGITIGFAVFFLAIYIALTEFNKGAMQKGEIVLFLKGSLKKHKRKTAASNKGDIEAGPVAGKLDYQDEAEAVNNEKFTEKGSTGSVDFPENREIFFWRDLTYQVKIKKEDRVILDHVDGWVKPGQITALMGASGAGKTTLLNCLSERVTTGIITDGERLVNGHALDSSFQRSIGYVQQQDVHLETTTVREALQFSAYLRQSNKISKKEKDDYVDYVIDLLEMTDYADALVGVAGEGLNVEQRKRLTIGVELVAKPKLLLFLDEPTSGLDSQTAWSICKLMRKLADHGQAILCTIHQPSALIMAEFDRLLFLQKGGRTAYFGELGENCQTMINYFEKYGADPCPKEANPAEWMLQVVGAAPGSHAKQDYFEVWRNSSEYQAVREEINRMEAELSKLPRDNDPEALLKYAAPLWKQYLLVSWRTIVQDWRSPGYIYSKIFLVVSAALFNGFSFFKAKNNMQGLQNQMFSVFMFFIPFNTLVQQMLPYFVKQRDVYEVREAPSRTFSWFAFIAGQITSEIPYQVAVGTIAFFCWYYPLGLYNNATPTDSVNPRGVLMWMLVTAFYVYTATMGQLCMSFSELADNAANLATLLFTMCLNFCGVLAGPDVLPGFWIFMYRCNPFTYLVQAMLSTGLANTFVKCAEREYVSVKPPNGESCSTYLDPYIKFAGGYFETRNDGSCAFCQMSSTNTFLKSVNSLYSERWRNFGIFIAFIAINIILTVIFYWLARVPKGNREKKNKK

Row | Compound | MIC [1, 3] [µg/mL] | MIC [2] [µg/mL] | Fold-reduced resistance level (MIC) relative to AD/CDR1 (AD/CDR1-G521R) [fold] | MIC (AD/CDR1-G521R) [µg/mL] | Fold-reduced resistance level (MIC) relative to AD/CDR1 (AD/CDR1-M639I) [fold] | MIC (AD/CDR1-M639I) [µg/mL] | Fold-reduced resistance level (MIC) relative to AD/CDR1 (AD/CDR1-A713P) [fold] | MIC (AD/CDR1-A713P) [µg/mL] | MIC (AD/CDR1-T1355N) [µg/mL] | Fold-reduced resistance level (MIC) relative to AD/CDR1 (AD/CDR1-T1355N) [fold] | MIC [1, 4] [µg/mL] | IC50 (wt Cdr1 ATPase activity; [5]) [µM] | Ki (wt Cdr1 ATPase activity) [µM] | Vmax of ATPase activity in the presence of inhibitor (wt Cdr1 ATPase activity; [I] 0.5 μM) [nmol/min/mg] | Vmax of ATPase activity in the presence of inhibitor (wt Cdr1 ATPase activity; [I] 1.0 μM) [nmol/min/mg] | type of inhibition of ATPase activity (Lineweaver-Burk) (wt Cdr1 ATPase activity) | IC50 (wt Cdr1 ATPase activity; from Fig. 4, read-out: IC50 for inhibition of Cdr1 ATPase activity) [µM] | Vmax of ATPase activity in the presence of inhibitor (wt Cdr1 ATPase activity; [I] 2.0 μM) [nmol/min/mg]
1 | C/C=C/C/C=C/CCC(=O)[C@H]1O[C@H]1C(N)=O [CER, cerulenin] | 0.25 (≈ 1.12 µM) | 8 (≈ 35.8 µM) | 2 | 4 (≈ 17.9 µM) | 2 | 4 (≈ 17.9 µM) | 2 | 4 (≈ 17.9 µM) | 4 (≈ 17.9 µM) | 2 |  |  |  |  |  |  |  | 
2 | C[C@@H]1C[C@@H]([C@H](O)CC2CC(=O)NC(=O)C2)C(=O)[C@@H](C)C1 [CHX, cycloheximide] |  | 2 (≈ 7.11 µM) | 2 | 1 (≈ 3.55 µM) | 2 | 1 (≈ 3.55 µM) | 2 | 1 (≈ 3.55 µM) | 2 (≈ 7.11 µM) | 1 | 0.016 (≈ 0.0569 µM) |  |  |  |  |  |  | 
3 | Clc1ccccc1C(c1ccccc1)(c1ccccc1)n1ccnc1 [CLT, clotrimazole] |  | 8 (≈ 23.2 µM) |  |  |  | 8 (≈ 23.2 µM) |  | 1 (≈ 2.9 µM) | 4 (≈ 11.6 µM) |  | 0.002 (≈ 0.0058 µM) |  |  |  |  |  |  | 
4 | CCC(C)n1ncn(-c2ccc(N3CCN(c4ccc(OCC5COC(Cn6cncn6)(c6ccc(Cl)cc6Cl)O5)cc4)CC3)cc2)c1=O (stereo not shown) [ITC, itraconazole] | 0.031 (≈ 0.0439 µM) | 32 (≈ 45.3 µM) | 128 | 0.25 (≈ 0.354 µM) | 2 | 16 (≈ 22.7 µM) |  | 1 (≈ 1.42 µM) | 16 (≈ 22.7 µM) | 2 |  | > 32 |  |  |  |  |  | 
5 | CC(=O)N1CCN(c2ccc(OCC3COC(Cn4ccnc4)(c4ccc(Cl)cc4Cl)O3)cc2)CC1 (stereo not shown) [KTC, ketoconazole] |  | 8 (≈ 15.1 µM) |  | 0.125 (≈ 0.235 µM) | 2 | 4 (≈ 7.53 µM) | 8 | 1 (≈ 1.88 µM) | 4 (≈ 7.53 µM) | 2 | 0.008 (≈ 0.0151 µM) | 13 |  |  |  |  |  | 
6 | C/C1=C/C(=O)O[C@@H]2C[C@@H](CC[C@H](C)/C=C\C=C\CC1)O[C@@](O)([C@@H]1CSC(=O)N1)C2 [LaA, latrunculin A] |  | 8 (≈ 19 µM) |  | 0.125 (≈ 0.297 µM) | 1 | 8 (≈ 19 µM) | 4 | 2 (≈ 4.74 µM) | 2 (≈ 4.74 µM) | 4 | 0.016 (≈ 0.038 µM) |  |  |  |  |  |  | 
7 | Clc1ccc(COC(Cn2ccnc2)c2ccc(Cl)cc2Cl)c(Cl)c1 (stereo not shown) [MCZ, miconazole] |  | 8 (≈ 19.2 µM) | 16 | 0.5 (≈ 1.2 µM) | 4 | 2 (≈ 4.81 µM) | 8 | 1 (≈ 2.4 µM) | 2 (≈ 4.81 µM) | 4 | 0.008 (≈ 0.0192 µM) |  |  |  |  |  |  | 
8 | CC[C@@]1([C@@H]2O[C@@H]([C@H]3O[C@@](O)(CO)[C@H](C)C[C@@H]3C)C[C@@H]2C)CC[C@H]([C@]2(C)CC[C@]3(C[C@H](O)[C@@H](C)[C@@H]([C@@H](C)[C@@H](OC)[C@H](C)C(=O)O)O3)O2)O1 [MON, monensin] | 0.031 (≈ 0.0462 µM) | 128 (≈ 191 µM) | 256 | 0.5 (≈ 0.745 µM) | 1 | 128 (≈ 191 µM) |  | 128 (≈ 191 µM) | 128 (≈ 191 µM) | 1 |  | > 256 |  |  |  |  |  | 
9 | CO[C@@H]1C[C@@H](C[C@H]2CC[C@H](C)[C@H]([C@@H](C)C(=O)O)O2)O[C@]2(O[C@](C)([C@H]3CC[C@@](C)([C@@H]4O[C@@H]([C@H]5O[C@@](O)(CO)[C@H](C)C[C@@H]5C)C[C@@H]4C)O3)C[C@H]2C)[C@@H]1C [NIG, nigericin] | 0.063 (≈ 0.0869 µM) | 128 (≈ 177 µM) |  | 0.25 (≈ 0.345 µM) | 1 | 128 (≈ 177 µM) | 16 | 8 (≈ 11 µM) | 128 (≈ 177 µM) | 1 |  | > 256 |  |  |  |  |  | 
10 | CC[C@H]1/C=C/C=C/C[C@@H](C)[C@H](O)[C@@](C)(O)C(=O)[C@@H](C)[C@H](O)[C@@H](C)C(=O)[C@@H](C)[C@H](O)[C@@H](C)/C=C/C(=O)O[C@@H]2[C@H](C)[C@H](CC1)O[C@]1(CC[C@H](C)[C@H](C[C@@H](C)O)O1)[C@H]2C [Oligomycin, oligomycin] |  |  |  |  |  |  |  |  |  |  |  |  | 0.54 ± 0.01 | 185 | 132 | noncompetitive inhibition |  | 
11 | CC[C@@H]([C@H](C)O)n1ncn(-c2ccc(N3CCN(c4ccc(OC[C@@H]5CO[C@@](Cn6cncn6)(c6ccc(F)cc6F)C5)cc4)CC3)cc2)c1=O [PSC, posaconazole] | 0.016 (≈ 0.0228 µM) | 32 (≈ 45.7 µM) |  | 0.063 (≈ 0.0899 µM) | 16 | 2 (≈ 2.85 µM) |  | 1 (≈ 1.43 µM) | 2 (≈ 2.85 µM) | 16 |  |  |  |  |  |  |  | 
12 | CC/N=c1\cc2oc3cc(NCC)c(C)cc3c(-c3ccccc3C(=O)OCC)c-2cc1C [R6G, rhodamine 6G] | 0.5 (≈ 1.13 µM) | 32 (≈ 72.3 µM) | 8 | 4 (≈ 9.04 µM) | 2 | 16 (≈ 36.2 µM) |  | 32 (≈ 72.3 µM) | 32 (≈ 72.3 µM) | 1 |  | 32 |  |  |  |  |  | 
13 | C[C@@H](c1ncncc1F)[C@](O)(Cn1cncn1)c1ccc(F)cc1F [VRC, voriconazole] | 0.016 (≈ 0.0458 µM) | 8 (≈ 22.9 µM) | 8 | 1 (≈ 2.86 µM) | 1 | 8 (≈ 22.9 µM) | 2 | 4 (≈ 11.5 µM) | 8 (≈ 22.9 µM) | 1 |  |  |  |  |  |  |  | 
14 | [O]=[V]([O-])([O-])[O-] [Vanadate, vanadate] |  |  |  |  |  |  |  |  |  |  |  |  | 0.96 ± 0.08 | 161 |  | uncompetitive inhibitor | 1.2 | 90
